Laboratory results taken from article PMC8776894 (Communications Biology, 2022).
Where “and” joins values, the source holds several entries; their conditions need not be identical. Identical values can stand only once.

Tests used:
[1] = test system: platelet aggregation in platelet rich plasma; experiment: Platelet aggregation function test; type: cell-based; conditions: VK 0.0091–0.294 µM; rabbit PRP, ADP 6.07 µmol/L, 5 min maximum aggregation rate
Description: Platelet aggregation function test. Venous blood from (normal healthy rabbits) was collected in 3 mL sodium citrate anticoagulation vacuum plastic tubes. The collected venous blood was centrifuged for 10 min at 100 × g at 4℃ to obtain the upper plasma, and the platelet rich plasma (PRP) was prepared, centrifuged again for 10 min at 2000 × g at 4°C to draw the upper plasma, the platelet poor plasma (PPP) was prepared and […] to a platelet concentration of 3×10^8 cells/ml was counted. The adjusted PRP was placed into a four-channel platelet aggregation instrument (Agg RAM, Helena Laboratories, USA) to determine the 5 min maximum platelet aggregation rate with adenosine diphosphate (ADP), arachidonic acid (AA), thrombin, collagen (COL) , and platelet-activating factor (PAF) or saline as inducers (at a final […]
Acute toxicity test. Systemic acute toxicity test by peritoneal injection was performed according to the guideline provided by Center for Drug Evaluation and Research. In addition to the normal group, male mice were randomly divided into the treated groups received a single dose of 1.5 mg/kg, 6 mg/kg, 24 mg/kg, 96 mg/kg and 384 body weight of VK. […]
The obtained plasma was analyzed using an automatic coagulation apparatus (CA1500).

[2] = test system: brain of MCAO mice; experiment: Fluorescence imaging of FITC-labeled VK in brain of stroke mice; type: in vivo, mouse
Description: A successful MCAO model was established and these mice were used for subsequent experiments. Immediately after surgery, FITC or FITC-labeled VK were administered intravenously and mice were killed after 30 min to isolate the brain and imaged by an imaging system (IVIS Lumina II). For fluorescent imaging, the brain was immediately collected and kept in the dark for 0, 30, 60, and 90 min after the administration of VK. Frozen sections were prepared according to the above method (seen Morphological Assessment). Images were acquired by confocal microscopy (FV1000 MPE-B, Olympus).

[3] = test system: MCAO/R mice; experiment: Longa test; type: in vivo, mouse
Description: Mice were graded on a 5-point scale, which was modified from the Longa score.

[4] = test system: neurons in cortex and hippocampus of MCAO/R mice; experiment: Nissl staining; type: in vivo, mouse
Description: Mice were anesthetized at 48 h after MCAO/R. Brain samples (bregma −2.06–1.94 mm) were collected and fixed by 4% paraformaldehyde for 12–18 h. Following sequential dehydration by 10%, 20%, and 30% sucrose, brains were put in frozen section embedding medium (SAKURA Tissue-Tek O.C.T. Compound, Japan) and cut into […] sections at the level of the frontal cortex (bregma: 1.0 to −1.94 mm) using a cryostat microtome (Leica CM1950). The sections were subsequently stained with Nissl staining.

[5] = test system: IL-1β, TNF-α, IL-6, IL-8, IL-10 in serum; experiment: Cytokine ELISA in serum; type: in vivo, mouse; conditions: MCAO/R mice, 48 h
Description: Mice were decapitated under anesthesia at 48 h after MCAO/R. The IL-1β (Cat# 88-5019-88), TNF-α (Cat# 88-7324-22), IL-6 (Cat# 88-7064-88), and IL-8 (Cat# 88-8086-22) were purchased from Thermo Fisher Scientific. The levels of these proteins were measured by enzyme-linked immune sorbent assays (ELISA) kits, according to the manufacturer’s recommendations.

[6] = test system: CD45+F4/80+CD11b+MHCII+ microglia; experiment: Flow cytometry of primary microglia from brain; type: in vivo, mouse; conditions: MCAO/R mice, IF
Description: Brain samples were collected in sham or MCAO mice, digested with collagenase IV and DNase, and filtered with sterile cell strainers (Biologix, 70 µm). Single-cell suspensions were prepared after the removal of red blood cells by ammonium-chloride-potassium (ACK) lysis buffer and isolated leukocytes in brains by 30%, 37%, and 70% Percoll (GE Healthcare) density gradient centrifugation, respectively. Cell numbers were counted by a Coulter counter (Thermo Fisher). Cells were washed with buffer (PBS with 0.5% bovine serum albumin and 0.02% sodium azide) three times and subsequently stained with fluorochrome-conjugated monoclonal antibodies: PE Rat anti-Mouse CD45 (553081, BD Biosciences), FITC anti-mouse F4/80 antibody (123108, Biolegend), PerCP-Cyanine5.5 CD11b antibody (45-0112-82, Invitrogen), and APC anti-mouse I-A/I-E antibody (107614, Biolegend). Samples were analyzed using Flow Cytometry (CytoFLEX S). Subsequent analysis was performed with FlowJo software (Tree Star Inc., San Carlos, CA, USA). Total microglia were identified as CD45^+F4/80^+CD11b^+, M1-like microglia were identified as CD45 + F4/80 + CD11b + MHCII + .

[7] = test system: HT22 hippocampal neuron cells (OGD/R); experiment: HT22 cell viability after OGD/R (CCK8)
[8] = test system: MCAO/R mice; experiment: Grip test; type: in vivo, mouse; set-up: grip test (Fig.2g): unit not given here; conditions: for grip test (Fig.2g): individual animals
Description: The grip strength (The Chatillon® DFE Digital Force Gauge DFX-050) was used to evaluate the effects of VK on muscular incoordination of mice. The forelimbs of the mice were placed on the test grid and the mice were gently pulled after the animals were grasped and the force value when the claws of the animals were recorded was the grip value. The test was performed at 24 and 48 h after MCAO/R.

Gly-Arg-Pro-Hyp-Gly-Phe-Ser-Pro-Phe-Arg-Ile-Asp [VK, Vespakinin-M]
ADP-induced platelet aggregation vs control group [1]: decreased
accumulation in brain, in vivo imaging ([2]; FITC-labeled VK i.v. to stroke mice, brain imaged after 30 min (IVIS Lumina II)): slightly accumulate in the ischemic region
penetration of BBB and cell membrane (conclusion) ([2]; under conditions such as cerebral I/R): can cross the BBB and cell membrane
Longa test score (Fig.2e) ([3]; 0.5d, VK 150 µg/kg i.p., individual animals): 4 and 3 (2×) and 2 (3×)
Longa test score (Fig.2e) ([3]; 0.5d, VK 300 µg/kg i.p., individual animals): 2 (3×) and 3 (2×) and 4
Longa test score (Fig.2e) ([3]; 1d, VK 150 µg/kg i.p., individual animals): 3 and 2 (3×) and 1 (2×)
Longa test score (Fig.2e) ([3]; 1d, VK 300 µg/kg i.p., individual animals): 2 (3×) and 3 (2×) and 1
Longa test score (Fig.2e) ([3]; 3d, VK 150 µg/kg i.p., individual animals): 2 (2×) and 1 (4×)
Longa test score (Fig.2e) ([3]; 3d, VK 300 µg/kg i.p., individual animals): 1 (2×) and 2 (4×)
Longa test score (Fig.2e) ([3]; 7d, VK 150 µg/kg i.p., individual animals): 2 and 1 (5×)
Longa test score (Fig.2e) ([3]; 7d, VK 300 µg/kg i.p., individual animals): 1 (3×) and 2 (3×)
neurological deficits, Longa test, vs vehicle ([3]; MCAO/R mice, VK 150 and 300 µg/kg i.p.): improved neurological deficits
Fig8g neurological score ([3]; VK alone or with B1R / B2R blockade, individual animals, n = 5, score and time not given): 1 and 2 and 0
Fig8f neurological score ([3]; VK alone or with B1R / B2R blockade, individual animals, n = 6, score and time not given): 1 and 2
neuron morphology, Nissl staining [4]: morphologically intact neurons were broadly seen
IL-10 level in serum vs vehicle [5]: increase in IL-10 levels
IL-1β, TNF-α, IL-6 and IL-8 levels in the peripheral (serum) vs vehicle ([5]; VK 150 and 300 µg/kg): decreased IL-1β, TNF-α, IL-6, and IL-8 levels
activation of microglia [6]: suppressed the excessive activation of microglia
cell activity of HT22 cells after OGD/R [7]: enhanced cell activity
grip test (Fig.2g) ([8]; VK 150 µg/kg i.p.): 103 and 99.5 and 136 and 78 and 61.1 and 99 and 115.7
grip test (Fig.2g) ([8]; VK 300 µg/kg i.p.): 116.6 and 26 and 19.5 and 56.2 and 63.2 and 77 and 80.9
sensorimotor function, grip test ([8]; VK 150 and 300 µg/kg i.p.): improved functional performance and ameliorated the sensorimotor asymmetry
